Read-outs that look alike come from different tables or passages of the source.
What was measured:
Assay type in all cases: in vivo
[1] = system: Plutella xylostella; assay: Plutella xylostella (diamond back moth), artificial diet test; conditions: 120 h, read-out: control (mortality and growth inhibition)
Description: Plutella xylostella (Diamond Back Moth):
24-well microtiter plates with artificial diet were treated with aqueous test solutions prepared from 10′000 ppm DMSO stock solutions by pipetting. After drying, the plates were infested with L2 larvae (10 to 15 per well). The samples were assessed for mortality and growth inhibition in comparison to untreated samples 5 days after infestation.

[2] = system: Tetranychus urticae; assay: Tetranychus urticae (two-spotted spider mite), bean leaf disc test; conditions: foliar, 192 h, read-out: control (mortality on mixed population, mobile stages)
Description: Tetranychus urticae (Two-Spotted Spider Mite):
Bean leaf discs on agar in 24-well microtiter plates were sprayed with aqueous test solutions prepared from 10′000 ppm DMSO stock solutions. After drying the leaf discs were infested with a mite population of mixed ages. The samples were assessed for mortality on mixed population (mobile stages) 8 days after infestation.

[3] = system: Thrips tabaci; assay: Thrips tabaci (onion thrips), sunflower leaf disc test; conditions: foliar, 144 h, read-out: control (mortality)
Description: Thrips tabaci (Onion Thrips):
Sunflower leaf discs were placed on agar in 24-well microtiter plates and sprayed with aqueous test solutions prepared from 10′000 ppm DMSO stock solutions. After drying the leaf discs were infested with a thrips population of mixed ages. The samples were assessed for mortality 6 days after infestation.

[4] = system: Myzus persicae; assay: Myzus persicae (green peach aphid), sunflower leaf disc spray test; conditions: foliar, 144 h
Description: (§1) Myzus persicae (Green Peach Aphid):
Sunflower leaf discs were placed on agar in a 24-well microtiter plate and sprayed with test solutions at an application rate of 200 ppm. After drying, the leaf discs were infested with an aphid population of mixed ages. After an incubation period of 6 DAT, samples were checked for mortality. The following compounds gave at least 80% mortality of Myzus persicae: compounds 1,2, 3, 4, 5, 6, 11, 12, 15, 17, 18, 19, 20, 23, 24, 25, 26, 27, 30, 32, 33, 34 35, 41, 43, 44, 47, 50, 55, 58, 59, 60, 61, 62, 63, 64, 65 and 66.

[5] = system: Diabrotica balteata; assay: Diabrotica balteata (corn root worm), maize sprout test; conditions: 96 h, read-out: control (mortality and growth inhibition)
Description: Diabrotica balteata, (Corn Root Worm)
Maize sprouts, placed on an agar layer in 24-well microtiter plates were treated with aqueous test solutions prepared from 10′000 ppm DMSO stock solutions by spraying. After drying, the plates were infested with L2 larvae (6 to 10 per well). The samples were assessed for mortality and growth inhibition in comparison to untreated samples 4 days after infestation.

[6] = system: Euschistus heros; assay: Euschistus heros (neotropical brown stink bug), soybean leaf test; conditions: 120 h, read-out: effect in at least one of the two categories (mortality or growth inhibition); for percent effect (mortality or growth inhibition) at 200 ppm: application rate 200 ppm, N2 nymphs, 5 days after infestation
Description: Euschistus heros (Neotropical Brown Stink Bug):
Soybean leaves on agar in 24-well microtiter plates were sprayed with aqueous test solutions prepared from 10′000 ppm DMSO stock solutions. After drying the leaves were infested with N2 nymphs. The samples were assessed for mortality and growth inhibition in comparison to untreated samples 5 days after infestation.

[7] = system: Spodoptera littoralis; assay: Spodoptera littoralis (Egyptian cotton leaf worm), cotton leaf disc spray test; conditions: foliar, 72 h, read-out: control (at least one of mortality, anti-feedant effect, growth inhibition); for percent control (mortality, anti-feedant effect or growth inhibition) at 200 ppm: application rate 200 ppm, L1 larvae, 3 days after infestation
Description: Spodoptera littoralis (Egyptian Cotton Leaf Worm)
Cotton leaf discs were placed on agar in 24-well microtiter plates and sprayed with aqueous test solutions prepared from 10′000 ppm DMSO stock solutions. After drying the leaf discs were infested with five L1 larvae. The samples were assessed for mortality, anti-feedant effect, and growth inhibition in comparison to untreated samples 3 days after infestation. Control of Spodoptera littoralis by a test sample is when at least one of mortality, anti-feedant effect, and growth inhibition is higher than the untreated sample.

[8] = system: Myzus persicae; assay: Myzus persicae (green peach aphid), sucrose solution / Parafilm test; conditions: 120 h
Description: as §1
Test compounds were applied by pipette into 24 well plates and mixed with Sucrose solution. Application rate: 12.5 ppm. The plates were closed with a stretched parafilm. A plastic stencil with 24 holes is placed onto the plate and infested pea seedlings were placed directly on the Parafilm. The infested plate is closed with a gel blotting paper and another plastic stencil and then turned upside down. 5 days after infestation the samples were checked on mortality.

[9] = application rate 200 ppm, L2 larvae, 5 days after infestation
[10] = application rate 200 ppm, 8 days after infestation
[11] = application rate 200 ppm, mixed ages, 6 days after infestation
[12] = application rate 200 ppm, mixed ages, 6 DAT, read-out: mortality
[13] = application rate 200 ppm, L2 larvae, 4 days after infestation
[14] = test rate of 12 ppm, sucrose solution, 5 days after infestation, read-out: mortality

Cn1nc(OCC(F)(F)F)c(C(F)(F)F)c1-n1cc(-c2ccc(Cl)c(C(=O)NC3CC3)c2)cn1 [compound 2]
≥ 80%: mortality at 200 ppm [1, 9] | mortality at 200 ppm [2, 10] | mortality at 200 ppm [3, 11] | mortality at 200 ppm [4, 12] | mortality at 200 ppm [5, 13] | percent effect (mortality or growth inhibition) at 200 ppm [6] | percent control (mortality, anti-feedant effect or growth inhibition) at 200 ppm [7] | mortality at 12 ppm [8, 14]

Cn1nc(OCC(F)(F)F)c(C(F)(F)F)c1-n1cc(-c2ccc(Cl)c(C(=O)NC3(C#N)CC3)c2)cn1 [compound 3]
≥ 80%: mortality at 200 ppm [1, 9] | mortality at 200 ppm [2, 10] | mortality at 200 ppm [3, 11] | mortality at 200 ppm [4, 12] | mortality at 200 ppm [5, 13] | percent effect (mortality or growth inhibition) at 200 ppm [6] | percent control (mortality, anti-feedant effect or growth inhibition) at 200 ppm [7] | mortality at 12 ppm [8, 14]

Cn1nc(OC(F)(F)C(F)F)c(C(F)(F)F)c1-n1cc(-c2ccc(Cl)c(C(=O)NC3(C#N)CC3)c2)cn1 [compound 11]
≥ 80%: mortality at 200 ppm [1, 9] | mortality at 200 ppm [2, 10] | mortality at 200 ppm [3, 11] | mortality at 200 ppm [4, 12] | mortality at 200 ppm [5, 13] | percent effect (mortality or growth inhibition) at 200 ppm [6] | percent control (mortality, anti-feedant effect or growth inhibition) at 200 ppm [7] | mortality at 12 ppm [8, 14]

Cn1nc(OC(F)(F)C(F)(F)Br)c(C(F)(F)F)c1-n1cc(-c2ccc(Cl)c(C(=O)NC3(C#N)CC3)c2)cn1 [compound 12]
≥ 80%: mortality at 200 ppm [1, 9] | mortality at 200 ppm [2, 10] | mortality at 200 ppm [3, 11] | mortality at 200 ppm [4, 12] | mortality at 200 ppm [5, 13] | percent effect (mortality or growth inhibition) at 200 ppm [6] | percent control (mortality, anti-feedant effect or growth inhibition) at 200 ppm [7] | mortality at 12 ppm [8, 14]

Cn1nc(OC(F)(F)C(F)OC(F)(F)C(F)(F)C(F)(F)F)c(C(F)(F)F)c1-n1cc(-c2ccc(Cl)c(C(=O)NC3(C#N)CC3)c2)cn1 (centres unmarked) [compound 17]
≥ 80%: mortality at 200 ppm [1] | mortality at 200 ppm [2] | mortality at 200 ppm [3] | mortality at 200 ppm [4] | mortality at 200 ppm [5] | percent control (mortality or growth inhibition) at 200 ppm [6] | mortality at 200 ppm [7] | mortality at 12 ppm [8]

Cn1nc(OCC(F)(F)OC(F)(F)C(F)(F)OC(F)(F)F)c(C(F)(F)F)c1-n1cc(-c2ccc(Cl)c(C(=O)NC3(C#N)CC3)c2)cn1 [compound 18]
≥ 80%: mortality at 200 ppm [1, 9] | mortality at 200 ppm [2, 10] | mortality at 200 ppm [3, 11] | mortality at 200 ppm [4, 12] | mortality at 200 ppm [5, 13] | percent effect (mortality or growth inhibition) at 200 ppm [6] | percent control (mortality, anti-feedant effect or growth inhibition) at 200 ppm [7] | mortality at 12 ppm [8, 14]

Cn1nc(OCC(F)(F)C(F)(F)C(F)(F)F)c(C(F)(F)F)c1-n1cc(-c2ccc(Cl)c(C(=O)NC3(C#N)CC3)c2)cn1 [compound 19]
≥ 80%: mortality at 200 ppm [1] | mortality at 200 ppm [2] | mortality at 200 ppm [3] | mortality at 200 ppm [4] | mortality at 200 ppm [5] | percent control (mortality or growth inhibition) at 200 ppm [6] | mortality at 200 ppm [7] | mortality at 12 ppm [8]

Cn1nc(OCC(F)(F)C(F)(F)C(F)(F)C(F)F)c(C(F)(F)F)c1-n1cc(-c2ccc(Cl)c(C(=O)NC3(C#N)CC3)c2)cn1 [compound 20]
≥ 80%: mortality at 200 ppm [1] | mortality at 200 ppm [2] | mortality at 200 ppm [3] | mortality at 200 ppm [4] | mortality at 200 ppm [5] | percent control (mortality or growth inhibition) at 200 ppm [6] | mortality at 200 ppm [7] | mortality at 12 ppm [8]

Cn1nc(OCC(F)F)c(C(F)(F)F)c1-n1cc(-c2ccc(Cl)c(C(=O)NC3(C#N)CC3)c2)cn1 [compound 23]
≥ 80%: mortality at 200 ppm [1, 9] | mortality at 200 ppm [2, 10] | mortality at 200 ppm [3, 11] | mortality at 200 ppm [4, 12] | mortality at 200 ppm [5, 13] | percent effect (mortality or growth inhibition) at 200 ppm [6] | percent control (mortality, anti-feedant effect or growth inhibition) at 200 ppm [7] | mortality at 12 ppm [8, 14]

Cn1nc(OCC(F)(F)OC(F)(F)C(F)(F)OC(F)(F)F)c(C(F)(F)F)c1-n1cc(-c2ccc(Cl)c(C(=O)NC3CC3)c2)cn1 [compound 25]
≥ 80%: mortality at 200 ppm [1, 9] | mortality at 200 ppm [2, 10] | mortality at 200 ppm [3, 11] | mortality at 200 ppm [4, 12] | mortality at 200 ppm [5, 13] | percent effect (mortality or growth inhibition) at 200 ppm [6] | percent control (mortality, anti-feedant effect or growth inhibition) at 200 ppm [7] | mortality at 12 ppm [8, 14]

Cn1nc(OCC(F)(F)C(F)(F)C(F)(F)F)c(C(F)(F)F)c1-n1cc(-c2ccc(Cl)c(C(=O)NC3CC3)c2)cn1 [compound 26]
≥ 80%: mortality at 200 ppm [1] | mortality at 200 ppm [2] | mortality at 200 ppm [3] | mortality at 200 ppm [4] | mortality at 200 ppm [5] | percent control (mortality or growth inhibition) at 200 ppm [6] | mortality at 200 ppm [7] | mortality at 12 ppm [8]

Cn1nc(OC(F)(F)C(F)Cl)c(C(F)(F)F)c1-n1cc(-c2ccc(Cl)c(C(=O)NC3(C#N)CC3)c2)cn1 (centres unmarked) [compound 44]
≥ 80%: mortality at 200 ppm [2, 10] | mortality at 200 ppm [3, 11] | mortality at 200 ppm [4, 12] | mortality at 200 ppm [5, 13] | percent effect (mortality or growth inhibition) at 200 ppm [6] | mortality at 12 ppm [8, 14]

Cc1ccc(-c2cnn(-c3c(C(F)(F)F)c(OC(F)(F)C(F)C(F)(F)F)nn3C)c2)cc1C(=O)NC1CC1 (centres unmarked) [compound 58]
≥ 80%: mortality at 200 ppm [1, 9] | mortality at 200 ppm [2, 10] | mortality at 200 ppm [3, 11] | mortality at 200 ppm [4, 12] | mortality at 200 ppm [5, 13] | percent control (mortality, anti-feedant effect or growth inhibition) at 200 ppm [7] | mortality at 12 ppm [8, 14]

— patent publication US10750742B2, “Pesticidally active pyrazole derivatives” (SYNGENTA PARTICIPATIONS AG, priority 2015, dated 2020)
